ChEMBL document CHEMBL1154382, “Preliminary SAR analysis of novel antiproliferative N(6),5'-bis-ureidoadenosine derivatives” (2009)
Active and inactive are the calls of the source.

Columns and labels:
Type in all cases: functional
CCRF-CEM = assay: Antiproliferative activity against human CCRF-CEM cells at 10 uM assessed as cell growth inhibition relative to control
HL-60(TB) = assay: Antiproliferative activity against human HL-60(TB) cells at 10 uM assessed as cell growth inhibition relative to control
K562 = assay: Antiproliferative activity against human K562 cells at 10 uM assessed as cell growth inhibition relative to control
MOLT-4 = assay: Antiproliferative activity against human MOLT4 cells at 10 uM assessed as cell growth inhibition relative to control
RPMI8266 = assay: Antiproliferative activity against human […] cells at 10 uM assessed as cell growth inhibition relative to control
A549 = assay: Antiproliferative activity against human A549 cells at 10 uM assessed as cell growth inhibition relative to control
EKVX = assay: Antiproliferative activity against human EKVX cells at 10 uM assessed as cell growth inhibition relative to control
PC-3 = assay: Antiproliferative activity against human PC3 cells at 10 uM assessed as cell growth inhibition relative to control
HOP-62 = assay: Antiproliferative activity against human HOP62 cells at 10 uM assessed as cell growth inhibition relative to control
HOP-92 = assay: Antiproliferative activity against human HOP92 cells at 10 uM assessed as cell growth inhibition relative to control
NCI-H226 = assay: Antiproliferative activity against human NCI-H226 cells at 10 uM assessed as cell growth inhibition relative to control
NCI-H23 = assay: Antiproliferative activity against human NCI-H23 cells at 10 uM assessed as cell growth inhibition relative to control
NCI-H322M = assay: Antiproliferative activity against human NCI-H322M cells at 10 uM assessed as cell growth inhibition relative to control
NCI-H460 = assay: Antiproliferative activity against human NCI-H460 cells at 10 uM assessed as cell growth inhibition relative to control
NCI-H522 = assay: Antiproliferative activity against human NCI-H522 cells at 10 uM assessed as cell growth inhibition relative to control
COLO 205 = assay: Antiproliferative activity against human COLO205 cells at 10 uM assessed as cell growth inhibition relative to control
HCC 2998 = assay: Antiproliferative activity against human HCC2998 cells at 10 uM assessed as cell growth inhibition relative to control
HCT-116 = assay: Antiproliferative activity against human HCT116 cells at 10 uM assessed as cell growth inhibition relative to control
HCT-15 = assay: Antiproliferative activity against human HCT15 cells at 10 uM assessed as cell growth inhibition relative to control
HT-29 = assay: Antiproliferative activity against human HT-29 cells at 10 uM assessed as cell growth inhibition relative to control
KM12 = assay: Antiproliferative activity against human KM12 cells at 10 uM assessed as cell growth inhibition relative to control
SW-620 = assay: Antiproliferative activity against human SW620 cells at 10 uM assessed as cell growth inhibition relative to control
LOX IMVI = assay: Antiproliferative activity against human LOXIMVI cells at 10 uM assessed as cell growth inhibition relative to control
Malme-3M = assay: Antiproliferative activity against human MALME-3M cells at 10 uM assessed as cell growth inhibition relative to control
M14 = assay: Antiproliferative activity against human M14 cells at 10 uM assessed as cell growth inhibition relative to control
SK-MEL-2 = assay: Antiproliferative activity against human SK-MEL-2 cells at 10 uM assessed as cell growth inhibition relative to control
SK-MEL-28 = assay: Antiproliferative activity against human SK-MEL-28 cells at 10 uM assessed as cell growth inhibition relative to control
SK-MEL-5 = assay: Antiproliferative activity against human SK-MEL-5 cells at 10 uM assessed as cell growth inhibition relative to control
UACC-257 = assay: Antiproliferative activity against human UACC257 cells at 10 uM assessed as cell growth inhibition relative to control
UACC-62 = assay: Antiproliferative activity against human UACC62 cells at 10 uM assessed as cell growth inhibition relative to control
SF-268 = assay: Antiproliferative activity against human SF268 cells at 10 uM assessed as cell growth inhibition relative to control
SF-295 = assay: Antiproliferative activity against human SF295 cells at 10 uM assessed as cell growth inhibition relative to control
SF-539 = assay: Antiproliferative activity against human SF539 cells at 10 uM assessed as cell growth inhibition relative to control
SNB-19 = assay: Antiproliferative activity against human SNB19 cells at 10 uM assessed as cell growth inhibition relative to control
SNB-75 = assay: Antiproliferative activity against human SNB75 cells at 10 uM assessed as cell growth inhibition relative to control
U-251 = assay: Antiproliferative activity against human U251 cells at 10 uM assessed as cell growth inhibition relative to control
IGROV-1 = assay: Antiproliferative activity against human IGROV1 cells at 10 uM assessed as cell growth inhibition relative to control
OVCAR-3 = assay: Antiproliferative activity against human OVCAR-3 cells at 10 uM assessed as cell growth inhibition relative to control
OVCAR-4 = assay: Antiproliferative activity against human OVCAR4 cells at 10 uM assessed as cell growth inhibition relative to control
OVCAR-5 = assay: Antiproliferative activity against human OVCAR5 cells at 10 uM assessed as cell growth inhibition relative to control
OVCAR-8 = assay: Antiproliferative activity against human OVCAR8 cells at 10 uM assessed as cell growth inhibition relative to control
SK-OV-3 = assay: Antiproliferative activity against human SKOV3 cells at 10 uM assessed as cell growth inhibition relative to control
786-0 = assay: Antiproliferative activity against human 786-0 cells at 10 uM assessed as cell growth inhibition relative to control
A498 = assay: Antiproliferative activity against human A498 cells at 10 uM assessed as cell growth inhibition relative to control
ACHN = assay: Antiproliferative activity against human ACHN cells at 10 uM assessed as cell growth inhibition relative to control
CAKI-1 = assay: Antiproliferative activity against human Caki1 cells at 10 uM assessed as cell growth inhibition relative to control
RXF 393 = assay: Antiproliferative activity against human RXF393 cells at 10 uM assessed as cell growth inhibition relative to control
SN12C = assay: Antiproliferative activity against human SN12C cells at 10 uM assessed as cell growth inhibition relative to control
TK-10 = assay: Antiproliferative activity against human TK10 cells at 10 uM assessed as cell growth inhibition relative to control
UO-31 = assay: Antiproliferative activity against human UO31 cells at 10 uM assessed as cell growth inhibition relative to control
BT-549 = assay: Antiproliferative activity against human BT549 cells at 10 uM assessed as cell growth inhibition relative to control
Hs-578T = assay: Antiproliferative activity against human Hs 578T cells at 10 uM assessed as cell growth inhibition relative to control
MCF7 = assay: Antiproliferative activity against human MCF7 cells at 10 uM assessed as cell growth inhibition relative to control
MDA-MB-231 = assay: Antiproliferative activity against human MDA-MB-231 cells at 10 uM assessed as cell growth inhibition relative to control
MDA-MB-468 = assay: Antiproliferative activity against human MDA-MB-468 cells at 10 uM assessed as cell growth inhibition relative to control
T47D = assay: Antiproliferative activity against human T47D cells at 10 uM assessed as cell growth inhibition relative to control
DU-145 = assay: Antiproliferative activity against human DU145 cells at 10 uM assessed as cell growth inhibition relative to control

Measured: growth inhibition (GI)

CNC(=O)NC[C@H]1O[C@@H](n2cnc3c(NC(=O)Nc4ccccc4)ncnc32)[C@@H]2OC(=O)C[C@@H]21
inactive: all assays above
